Columns and labels:
IL-1β = experiment: PBMC assay: IL-1β release after LPS stimulation; assay type: cell-based; conditions: PBMC; human PBMCs, 30 min compound, 100 ng/ml LPS for 6 hrs, MSD; read-out: IL1β AC50
Protocol: The activity of a compound according to the present invention can be assessed by in vitro methods.
(§1) Peripheral venous blood was collected from healthy individuals and human peripheral blood mononuclear cells (PBMCs) were isolated from blood by Ficoll-Histopaque (Sigma-Aldrich, A0561) density gradient centrifugation. After isolation, PBMCs were stored in liquid nitrogen for later use. Upon thawing, PBMC cell viability was determined in growth medium (RPMI media supplemented with 10% fetal bovine serum, 1% Pen-Strep and 1% L-glutamine). Compounds were spotted in a 1:3 serial dilution in DMSO and diluted to the final concentration in 30 μl medium in 96 well plates (Falcon, 353072). PBMCs were added at a density of 7.5×10^4 cells per well and incubated for 30 min in a 5% CO2 incubator at 37° C. LPS stimulation was performed by addition of 100 ng/ml LPS (final concentration, Invivogen, tlrl-smlps) for 6 hrs followed by collection of cellular supernatant and the analysis of IL-1β (μM) and TNF cytokines levels (μM) via MSD technology according to manufacturers' guidelines (MSD, K151A0H).
(§2) IC50 and AC50 values (for […]) and EC50 and AC50 values (TNF) were obtained on compounds of the invention/examples, and the AC50 values are depicted in the following table: […]

TNF = experiment: PBMC assay: TNF cytokine level after LPS stimulation; assay type: cell-based; conditions: PBMC; human PBMCs, 30 min compound, 100 ng/ml LPS for 6 hrs, MSD
Protocol: as §1, §2

SMILES | AC50 (IL-1β) [µM] | AC50 (TNF) [µM]
CC(C)COc1cc(=O)n(CC(=O)Nc2cc3ccccn3n2)nc1C(C)C [Compound 113] | 1.79 | > 20
CC(C)c1nn(CC(=O)Nc2ccc3nncn3c2)c(=O)c(Cl)c1OCC(F)(F)F [Compound 114] | 1.85 | > 20
CC(C)COc1cc(=O)n(CC(=O)NC23CCC(NC(=O)OC(C)(C)C)(C2)C3)nc1C(C)C [Compound 115] | 1.88 | > 20
CC(C)COc1cc(=O)n(CC(=O)NC23CC(S(=O)(=O)C4CC4)(C2)C3)nc1C(C)C [Compound 116] | 1.91 | > 20
CC(C)COc1cc(=O)n(CC(=O)NC23CC(N)(C2)C3)nc1C(C)C [Compound 117] | 2.04 | > 20
CC(C)COc1c(C(C)C)nn(CC(=O)Nc2ccc3nncn3c2)c(=O)c1C(F)F [Compound 118] | 2.3 | > 20
Cc1nnc(C23CC(NC(=O)Cn4nc(C(C)C)c(OCC(C)C)cc4=O)(C2)C3)o1 [Compound 119, 2-(4-isobutoxy-3-isopropyl-6-oxopyridazin-1(6H)-yl)-N-(3-(5-methyl-1,3,4-oxadiazol-2-yl)bicyclo[1.1.1]pentan-1-yl)acetamide] | 2.52 | > 20
Cc1ccn2nc(NC(=O)Cn3nc(C(C)C)c(OCC(C)C)cc3=O)cc2n1 [Compound 120] | 2.66 | > 20
CC(C)COc1cc(=O)n(CC(=O)NC23CC(N4CCCCC4)(C2)C3)nc1C(C)C [Compound 121] | 2.71 | > 20
CC(C)COc1cc(=O)n(CC(=O)N[C@]23CC[C@@](NC(=O)OC(C)(C)C)(CC2)C3)nc1C(C)C [Compound 122, tert-butyl ((1r,4r)-4-(2-(4-isobutoxy-3-isopropyl-6-oxopyridazin-1(6H)-yl)acetamido)bicyclo[2.2.1]heptan-1-yl)carbamate] | 2.81 | > 20
COc1ccc2nc(NC(=O)Cn3nc(C(C)C)c(OCC(C)C)cc3=O)nn2c1 [Compound 123] | 2.91 | > 20
CC(C)COc1cc(=O)n(CC(=O)Nc2nc3ccc(C(F)(F)F)cn3n2)nc1C(C)C [Compound 124] | 3.4 | > 20
CC(C)COc1cc(=O)n(CC(=O)NC23C4C5C2C2C3C4C52C(=O)O)nc1C(C)C (stereo not drawn) [Compound 125] | 3.41 | > 20
CC(C)COc1cc(=O)n(CC(=O)Nc2cn3cc(Br)ncc3n2)nc1C(C)C [Compound 126] | 3.56 | > 20
CC(C)COc1c(C(C)C)nn(CC(=O)Nc2ccc3nncn3n2)c(=O)c1C(C)O (stereo not drawn) [Compound 127] | 3.88 | 19.4
CC(C)COc1cc(=O)n(CC(=O)Nc2nc3ccccc3o2)nc1C(C)C [Compound 128] | 4.28 | > 20
CC(C)COc1cc(=O)n(CC(=O)Nc2nc3ccc(Cl)cn3n2)nc1C(C)C [Compound 129] | 4.7 | > 20
Cc1cc(C(F)(F)F)n2nc(NC(=O)Cn3nc(C(C)C)c(OCC(C)C)cc3=O)nc2n1 [Compound 130, 2-(4-isobutoxy-3-isopropyl-6-oxopyridazin-1(6H)-yl)-N-(5-methyl-7-(trifluoromethyl)-[1,2,4]triazolo[1,5-a]pyrimidin-2-yl)acetamide] | 8.73 | > 20
CC(C)COc1cc(=O)n(CC(=O)NC23CC(C(=O)O)(C2)C3)nc1C(C)C [Compound 131, 3-(2-(4-isobutoxy-3-isopropyl-6-oxopyridazin-1(6H)-yl)acetamido)bicyclo[1.1.1]pentane-1-carboxylic acid] | 9.63 | > 20
CC(C)COc1cc(=O)n(CC(=O)NC23CC(NC(=O)OC(C)(C)C)(C2)C3)nc1C(C)C [Compound 132] | 9.79 | > 20
Cc1ccc2c(c1)nc(NC(=O)Cn1nc(C(C)C)c(OCC(C)C)cc1=O)n2C [Compound 133] | > 10 | > 10

SMILES | AC50 (IL-1β) [µM] | AC50 (TNF) [µM]
CC(C)COc1cc(=O)n(CC(=O)Nc2nc3ccc(Cl)cc3n2C)nc1C(C)C [Compound 134] | > 10 | > 10
CC(C)COc1cc(=O)n(CC(=O)Nc2nc3ccc(Br)cc3n2C)nc1C(C)C [Compound 135] | > 10 | > 10
CC(C)COc1cc(=O)n(CC(=O)Nc2nc3ccc(F)cc3n2C)nc1C(C)C [Compound 136] | > 10 | > 10
CC(C)COc1cc(=O)n(CC(=O)Nc2nc3ccc(C#N)cc3o2)nc1C(C)C [Compound 137] | 10.2 | > 20
CC(C)c1nn(CC(=O)Nc2ccc3nncn3c2)c(=O)c(Cl)c1OCCC(F)(F)F [Compound 138] | 10.7 | > 20
Cc1cnc(C23CC(NC(=O)Cn4nc(C(C)C)c(OCC(C)C)cc4=O)(C2)C3)o1 [Compound 139, 2-(4-isobutoxy-3-isopropyl-6-oxopyridazin-1(6H)-yl)-N-(3-(5-methyloxazol-2-yl)bicyclo[1.1.1]pentan-1-yl)acetamide] | 10.8 | > 20
CC(C)COc1cc(=O)n(CC(=O)Nc2nc3ncccc3o2)nc1C(C)C [Compound 140] | 11.8 | > 20
CC(C)COc1cc(=O)n(CC(=O)Nc2nc3cc(Cl)ccc3o2)nc1C(C)C [Compound 141, N-(5-chlorobenzo[d]oxazol-2-yl)-2-(4-isobutoxy-3-isopropyl-6-oxopyridazin-1(6H)-yl)acetamide] | 12.2 | > 20
O=C(Cn1nc(OCC(F)(F)F)c(OCC(F)(F)F)cc1=O)Nc1ccc2nncn2n1 [Compound 142] | 15.7 | > 20
CC(C)c1nn(CC(=O)Nc2ccc3nncn3n2)c(=O)cc1Oc1ccccc1 [Compound 143] | 18 | > 20
CC(C)COc1cc(=O)n(CC(=O)Nc2nc3cccnc3o2)nc1C(C)C [Compound 144] | > 20 | > 20
Cc1ccc2nc(NC(=O)Cn3nc(C(C)C)c(OCC(C)C)cc3=O)n(C)c2c1 [Compound 145] | > 20 | > 20
CC(C)COc1cc(=O)n(CC(=O)Nc2nc3ccc(C#N)cc3n2C)nc1C(C)C [Compound 146] | > 20 | > 20
CC(C)COc1cc(=O)n(CC(=O)Nc2nc3ccccc3n2C)nc1C(C)C [Compound 147] | > 20 | > 20
CC(C)COc1cc(=O)n(CC(=O)Nc2nc3cc(C#N)ccc3n2C)nc1C(C)C [Compound 148] | > 20 | > 20
CC(C)COc1cc(=O)n(CC(=O)Nc2nc3cc(F)ccc3n2C)nc1C(C)C [Compound 149] | > 20 | > 20
CC(C)COc1cc(=O)n(CC(=O)Nc2nc3cc(Cl)ccc3n2C)nc1C(C)C [Compound 150] | > 20 | > 20
CC(C)COc1cc(=O)n(CC(=O)Nc2nc3cc(Br)ccc3n2C)nc1C(C)C [Compound 151] | > 20 | > 20
Cc1c(OCc2ccccc2)c(C(C)C)nn(CC(=O)Nc2ccc3nncn3c2)c1=O [Compound 152] | > 20 | > 20
CC(C)COc1cc(=O)n(CC(=O)NC23CCC(NC(=O)OC(C)(C)C)(CC2)CC3)nc1C(C)C [Compound 153] | > 20 | > 20
COc1nn(CC(=O)Nc2ccc3nncn3n2)c(=O)cc1OCC(F)(F)F [Compound 154] | > 20 | > 20

From patent US20240109905A1, “4-ALKOXY-6-OXO-PYRIDAZINE DERIVATIVES MODULATING NLRP3” (JANSSEN PHARMACEUTICA NV, priority 2021, published 2024)
